According to paper PMC5029699, “Landscape of activating cancer mutations in FGFR kinases and their differential responses to inhibitors in clinical use” (Oncotarget, 2016):

Tests used:
[1] = test system: cell line with introduced FGFR3 V555M mutation; design: method as in PMID 26097890; conditions: cell line originally responding to both drugs; cited from earlier work
[2] = test system: JHUEM-2 cancer cell line, FGFR2 mutation corresponding to N540K; design: method as in PMID 23908597; conditions: cited from earlier work
[3] = test system: cancer cell lines with the FGFR3 S249C substitution; conditions: some cancer cell lines with FGFR3 S249C; cited from earlier work
[4] = test system: NIH3T3 cells expressing FGFR3TACC3-fusion (WT KD); conditions: AZD4547 compared with JNJ42756493
Procedure: (§1) For the cell viability assay in the presence of FGFR inhibitors, NIH3T3 cells transfected with the stated FGFR3 variants were plated in 96-well plates, 1000 cells per well. Twenty-four hours later the cells were treated with various concentrations of kinase inhibitor. Forty-eight hours later, fresh inhibitor was added and the cells incubated for 72 hours. Cell viability was measured through the addition of CellTiter-Glo (Promega) and luminenscence measured with a standard luminometer plate reader. Data were normalised and fitted to a log(inhibitor) vs. response curve (three parameters) with GraphPad Prism.

[5] = test system: NIH3T3 cells expressing FGFR3 K650E; conditions: K650E NIH3T3 cells vs FGFR3TACC3-fusion cells, in words
Procedure: as §1

[6] = test system: NIH3T3 cells expressing FGFR3 N540K; conditions: N540K NIH3T3 cells vs FGFR3TACC3-fusion cells, in words
Procedure: as §1

Q: For `CCN(CC)CCCCNc1ncc2cc(-c3cc(OC)cc(OC)c3)c(NC(=O)NC(C)(C)C)nc2n1` [PD173074], which “drug effect following introduction of FGFR3 V555M mutation” value [1] is on record?
A: loss of efficacy

Q: And the “drug response due to mutation corresponding to N540K in FGFR2” value [2]?
A: reduced sensitivity

Q: For AZD4547, which “viability and proliferation of cancer cell lines” value [3] is on record?
A: compromised

Q: And the “difference between AZD4547 and JNJ42756493 cellular IC50s” value [4]?
A: 2-3 fold

Q: What about the “effect of variant on inhibitor efficacy in cells” value [5] of the same molecule?
A: reduce efficacy

Q: What about the “effect of variant on inhibitor efficacy in cells” value [6] of the same molecule?
A: reduce efficacy
